Calls of active or inactive are those of the source. The calls are words filed in the database; no cut-off is given here.
Columns and labels:
[1] = system: Plasmodium falciparum; assay: Ratio of IC50 for drug-resistant Plasmodium falciparum Dd2 harboring V259L mutant infected in human erythrocytes to IC50 for multidrug-resistant Plasmodium falciparum Dd2 infected in human erythrocytes; type: functional
[2] = system: Plasmodium falciparum; assay: Antimalarial activity against multidrug-resistant Plasmodium falciparum 7G8 infected in human erythrocytes by SYBR green 1-based fluorescence assay; type: functional, organism-based
[3] = target: hERG (KCNH2) (Homo sapiens, UniProt Q12809); assay: Inhibition of human ERG expressed in CHOK1 cells at 10 uM by automated patch clamp method relative to control; type: cell-based; conditions: CHO-K1 cells that express hERG
hERG (KCNH2), sequence (Q12809 whole entry): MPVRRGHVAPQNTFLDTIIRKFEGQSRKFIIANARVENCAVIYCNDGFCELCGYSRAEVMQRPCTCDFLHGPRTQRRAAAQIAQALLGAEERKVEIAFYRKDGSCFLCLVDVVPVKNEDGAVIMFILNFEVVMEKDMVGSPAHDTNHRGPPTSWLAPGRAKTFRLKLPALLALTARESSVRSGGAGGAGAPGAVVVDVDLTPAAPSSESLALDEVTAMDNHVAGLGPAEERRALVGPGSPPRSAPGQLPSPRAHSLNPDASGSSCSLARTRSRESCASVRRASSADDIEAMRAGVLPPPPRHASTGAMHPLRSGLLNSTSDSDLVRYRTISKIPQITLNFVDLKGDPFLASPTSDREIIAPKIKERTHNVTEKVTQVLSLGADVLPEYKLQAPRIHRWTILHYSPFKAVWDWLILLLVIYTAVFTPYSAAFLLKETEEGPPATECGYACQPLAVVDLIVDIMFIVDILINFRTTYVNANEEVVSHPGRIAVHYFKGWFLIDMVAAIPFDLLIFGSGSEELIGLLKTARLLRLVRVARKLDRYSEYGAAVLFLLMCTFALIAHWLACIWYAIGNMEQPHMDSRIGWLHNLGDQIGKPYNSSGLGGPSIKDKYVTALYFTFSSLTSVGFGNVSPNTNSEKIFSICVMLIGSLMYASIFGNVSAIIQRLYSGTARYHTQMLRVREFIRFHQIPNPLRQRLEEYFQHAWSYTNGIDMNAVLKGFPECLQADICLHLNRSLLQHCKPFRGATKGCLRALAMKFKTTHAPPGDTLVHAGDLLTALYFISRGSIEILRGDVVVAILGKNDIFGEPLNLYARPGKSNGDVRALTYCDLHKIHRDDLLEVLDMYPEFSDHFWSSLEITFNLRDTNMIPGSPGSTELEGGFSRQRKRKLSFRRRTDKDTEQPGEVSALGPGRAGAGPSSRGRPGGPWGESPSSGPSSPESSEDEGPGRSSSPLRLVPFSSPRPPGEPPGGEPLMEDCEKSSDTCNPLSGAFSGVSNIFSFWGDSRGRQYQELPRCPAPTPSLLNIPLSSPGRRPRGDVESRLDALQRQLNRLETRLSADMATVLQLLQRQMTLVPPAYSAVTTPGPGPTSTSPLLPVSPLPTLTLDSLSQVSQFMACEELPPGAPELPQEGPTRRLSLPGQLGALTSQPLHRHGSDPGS

[4] = Half life in human liver microsomes at 1 uM by LC-MS analysis; type: ADME, Microsome
[5] = Mutagenicity in Salmonella typhimurium TA100 assessed as increase in revertant colonies up to 10 uM in presence of S9 fraction by Ames test; type: toxicity, subcellular; conditions: salmonella enterica subsp. enterica serovar typhimurium
[6] = Mutagenicity in Salmonella typhimurium TA98 assessed as increase in revertant colonies up to 10 uM in presence of S9 fraction by Ames test; type: toxicity, subcellular; conditions: salmonella enterica subsp. enterica serovar typhimurium
[7] = system: Plasmodium falciparum; assay: Antimalarial activity against multidrug-resistant Plasmodium falciparum Dd2 infected in human erythrocytes by SYBR green 1-based fluorescence assay; type: functional, organism-based
[8] = system: Plasmodium falciparum; assay: Antimalarial activity against atovaquone-resistant Plasmodium falciparum Tm90-C2B infected in human erythrocytes by SYBR green 1-based fluorescence assay; type: functional, organism-based
[9] = Half life in mouse liver microsomes at 1 uM by LC-MS analysis; type: ADME, Microsome
[10] = system: Plasmodium falciparum; assay: Ratio of IC50 for drug-resistant Plasmodium falciparum Dd2 harboring M133I/A138T double mutant infected in human erythrocytes to IC50 for multidrug-resistant Plasmodium falciparum Dd2 infected in human erythrocytes; type: functional
[11] = system: Plasmodium berghei; assay: Antimalarial activity against luciferase-expressing Plasmodium berghei ANKA 676m1cl1 sporozoites infected in human HepG2A16 cells measured after 45 hrs by luciferase-luciferin based reporter assay; type: functional, organism-based; conditions: ANKA 676m1cl1, HepG2A16, 45 h
[12] = system: Plasmodium falciparum; assay: Antimalarial activity against drug-resistant Plasmodium falciparum Dd2 harboring V259L mutant infected in human erythrocytes after 72 hrs by SYBR green 1-based fluorescence assay; type: functional, organism-based; conditions: Dd2, 72 h
[13] = system: Plasmodium falciparum; assay: Antimalarial activity against drug-resistant Plasmodium falciparum 3D7 harboring A82T/V259L double mutant infected in human erythrocytes after 72 hrs by SYBR green 1-based fluorescence assay; type: functional, organism-based; conditions: 3D7, 72 h
[14] = system: Plasmodium falciparum; assay: Antimalarial activity against Plasmodium falciparum 3D7 infected in human erythrocytes after 72 hrs by SYBR green 1-based fluorescence assay; type: functional, organism-based; conditions: 3D7, 72 h
[15] = system: Plasmodium falciparum; assay: Antimalarial activity against drug-resistant Plasmodium falciparum Dd2 harboring M133I mutant infected in human erythrocytes after 72 hrs by SYBR green 1-based fluorescence assay; type: functional, organism-based; conditions: Dd2, 72 h
[16] = system: Plasmodium falciparum; assay: Ratio of IC50 for drug-resistant Plasmodium falciparum 3D7 harboring A82T/V259L double mutant infected in human erythrocytes to IC50 for Plasmodium falciparum 3D7 infected in human erythrocytes; type: functional
[17] = Mutagenicity in Salmonella typhimurium TA98 assessed as increase in revertant colonies up to 10 uM in absence of S9 fraction by Ames test; type: toxicity; conditions: salmonella enterica subsp. enterica serovar typhimurium
[18] = system: Plasmodium falciparum; assay: Antimalarial activity against drug-resistant Plasmodium falciparum Dd2 harboring M133I/A138T double mutant infected in human erythrocytes after 72 hrs by SYBR green 1-based fluorescence assay; type: functional, organism-based; conditions: Dd2, 72 h
[19] = system: Plasmodium berghei; assay: (§1) Antimalarial activity against liver stage luciferase-expressing Plasmodium berghei ANKA 676m1cl1 sporozoites infected in C57BL/6 mouse assessed as suppression of parasitemia at 40 to 160 mg/kg, po pretreated for 1 day followed by parasite infection and subsequent compound dosing for 2 days measured at 24 to 48 hrs post-infection by luciferin-based real-time imaging analysis; type: functional
[20] = Mutagenicity in Salmonella typhimurium TA100 assessed as increase in revertant colonies up to 10 uM in absence of S9 fraction by Ames test; type: toxicity; conditions: salmonella enterica subsp. enterica serovar typhimurium
[21] = system: HepG2; assay: Cytotoxicity against human HepG2 cells measured after 24 to 36 hrs by resazurin dye based fluorescence assay; type: cell-based
[22] = system: Plasmodium falciparum; assay: Ratio of IC50 for drug-resistant Plasmodium falciparum Dd2 harboring M133I mutant infected in human erythrocytes to IC50 for multidrug-resistant Plasmodium falciparum Dd2 infected in human erythrocytes; type: functional
[23] = system: Plasmodium falciparum; assay: Inhibition of Plasmodium falciparum cytochrome b-c1
[24] = system: Plasmodium falciparum; assay: Antimalarial activity against chloroquine-sensitive Plasmodium falciparum D6 infected in human erythrocytes by SYBR green 1-based fluorescence assay; type: functional, organism-based
[25] = system: Plasmodium yoelii; assay: Antimalarial activity against blood stage Plasmodium yoelii MR4 MRA-428 infected in CF1 mouse assessed as suppression of parasitemia administered once daily via oral gavage for 4 days starting from 24 hrs post-infection and measured post-last dose by Giemsa-staining based microscopic analysis; type: functional
[26] = Selectivity index, ratio of IC50 for human HepG2 cells to IC50 for chloroquine-sensitive Plasmodium falciparum D6 infected in human erythrocytes; type: toxicity, cell-based; conditions: read-out: Ratio IC50
[27] = system: Plasmodium berghei; assay: as §1, with “blood” for “liver”, “25” for “40 to 160”, “up” for “at 24”, “30 days” for “48 hrs”, “YOYO1 staining based flow cytometry” for “luciferin-based real-time imaging analysis”; type: functional
[28] = Mean residence time in ICR mouse plasma at 80 mg/kg, po administered as single dose; type: ADME, organism-based
[29] = AUC (0 to last) in ICR mouse plasma at 80 mg/kg, po administered as single dose; type: ADME, organism-based; parameters: dose 80 mg/kg, route oral, time 0 - last
[30] = Tmax in ICR mouse plasma at 80 mg/kg, po administered as single dose; type: ADME, organism-based; conditions: ICR, plasma, read-out: Tmax
[31] = Apparent volume of distribution in ICR mouse plasma at 80 mg/kg, po administered as single dose; type: ADME, organism-based; conditions: in vivo
[32] = AUC (0 to infinity) in ICR mouse plasma at 80 mg/kg, po administered as single dose; type: ADME, organism-based; parameters: dose 80 mg/kg, route oral, time infinity; conditions: in vivo
[33] = Apparent volume of distribution in ICR mouse liver at 80 mg/kg, po administered as single dose; type: ADME, organism-based; conditions: in vivo
[34] = AUC (0 to infinity) in ICR mouse liver at 80 mg/kg, po administered as single dose; type: ADME, organism-based; parameters: dose 80 mg/kg, route oral, time infinity
[35] = Cmax in ICR mouse plasma at 80 mg/kg, po administered as single dose; type: ADME, organism-based; parameters: dose 80 mg/kg, route oral; conditions: ICR, plasma, read-out: Cmax
[36] = Tmax in ICR mouse liver at 80 mg/kg, po administered as single dose; type: ADME, organism-based
[37] = Cmax in ICR mouse liver at 80 mg/kg, po administered as single dose; type: ADME, organism-based; parameters: dose 80 mg/kg, route oral
[38] = Mean residence time in ICR mouse liver at 80 mg/kg, po administered as single dose; type: ADME, organism-based
[39] = AUC (0 to last) in ICR mouse liver at 80 mg/kg, po administered as single dose; type: ADME, organism-based; parameters: dose 80 mg/kg, route oral, time 0 - last

CCN(CC)CCOc1ccc2c(=O)c3c(Cl)c(Cl)ccc3[nH]c2c1
Ratio IC50 [1]: 36 | IC50 [2]: 17 nM | inhibition at 10 µM [3]: 78% | half-life at 1 µM [4]: > 60 min | Activity [5]: Non-Toxic | Activity [6]: Non-Toxic | IC50 [7]: 12 to 40 nM | IC50 [8]: 1260 nM | half-life at 1 µM [9]: 50 min | Ratio IC50 [10]: 42 | IC50 [11]: 5.5 nM | IC50 [12]: 1440 nM | IC50 [13]: 1520 nM | IC50 [14]: 28 nM | IC50 [15]: 242 nM | Ratio IC50 [16]: 54 | Activity [17]: Non-Toxic | IC50 [18]: 1680 nM | Activity [19]: 100% | Activity [20]: Non-Toxic | IC50 [21]: 14400 nM | Ratio IC50 [22]: 6 | inhibition [23]: inactive | IC50 [24]: 10 nM | ED50 [25]: 1.8 mg/kg.day | ED90 [25]: 8.8 mg/kg.day | selectivity ratio [26]: 1440

COc1cc(NC(C)CCCN)c2ncccc2c1 (stereo not given) [PRIMAQUINE]
Activity [27]: 100% | MRT [28]: 138 min | AUC(0-t) [29]: 1260 ng·h/mL | Tmax [30]: 30 min | Vz [31]: 43.801 L/kg | AUC [32]: 1314 ng·h/mL | Vz [33]: 4.418 L/kg | AUC(0-inf) [34]: 27700 ng·h/mL | Cmax [35]: 531 ng/mL | Tmax [36]: 30 min | Cmax [37]: 8150 ng/mL | MRT [38]: 270 min | AUC(0-t) [39]: 27400 ng·h/mL

— ChEMBL document CHEMBL4390668, “Discovery and Structural Optimization of Acridones as Broad-Spectrum Antimalarials” (J Med Chem, 2019)
